Laboratory results published in article PMC8746645, “Isolation of Anti-Diabetic Active Compounds from Benincasae Exocarpium and Development of Simultaneous Analysis by HPLC-PDA” (Molecules, 2021).
Where two headings read alike, the source gives them in different places.

Columns and labels:
[1] = target: α-glucosidase from Saccharomyces cerevisiae (Saccharomyces cerevisiae, UniProt P53341); assay: α-glucosidase inhibitory activity assay (p-NPG substrate); format: biochemical; details: for IC50: compounds, pH 6.8, 37 °C, 405 nm, mean ± SD (n = 3)
Procedure: Among the anti-diabetes activity assays, the Infinite® F200 PRO spectrophotometer (TECAN, Männedorf, Zürich, Switzerland) was used for the AGE formation inhibitory activity assay in the BSA-glucose and BSA-MGO systems. In addition, the α-glucosidase inhibitory activity assay was performed using Biotek EPOCH2 (Biotek, Winooski, VT, USA).
α-Glucosidase inhibitory activity was measured spectrophotometrically according to the previously described method. All samples were dissolved in 10% DMSO. This assay consisted of a 50 μL sample solution, 50 μL of 50 mM potassium phosphate buffer (pH 6.8), and 50 μL of 0.5 U/mL α-glucosidase was preincubated for 10 min at 37 °C. After incubation, 50 μL of p-NPG was added to the mixed assay mixtures. […] The inhibitory activity was calculated using the equation applied in the BSA-glucose assay, but Ac and As are the absorbance values of the control and sample, respectively.

[2] = tested on: advanced glycation end-products (AGEs) formation in bovine serum albumin (BSA)-glucose system; format: biochemical
Procedure: The AGE formation inhibitory assay of BSA-glucose was conducted using a spectrophotometric method developed in a previous study. All test samples were dissolved in 10% DMSO at five different concentrations (1000–10,000 μg/mL for the extract and fractions and 100–10,000 μM for the compounds). The assay mixtures contained the following constituents: 135 µL of 50 mM phosphate buffer (pH 7.4) containing 0.02% sodium azide and BSA (10 mg/mL), 135 µL of 0.4 M D-fructose and D-glucose, and 30 µL of sample. The mixture was incubated at 60 °C for 2 days. After incubation, the fluorescence was measured at an excitation wavelength of 350 nm and emission wavelength of 450 nm in a 96-black well plate. AMG was used as a positive control. The inhibitory activity on AGE formation of BSA-glucose was calculated using the following formula: {(Ac − As)/Ac} × 100, where Ac is the fluorescence of the control and As is the fluorescence of the sample. Controls contained the same reaction mixture, except that phosphate buffer was added instead of the sample. The half-maximal inhibitory concentration (IC50) values of triplicate measurements of the samples and AMG were calculated and expressed as the mean ± SD.

[3] = tested on: advanced glycation end-products (AGEs) formation in BSA-methylglyoxal (MGO) system; assay: AGE formation inhibitory assay, BSA-MGO system; format: biochemical, bovine
Procedure: The AGE formation inhibitory assay of BSA-MGO was conducted using spectrophotometry according to a previously described method with modification. All samples were dissolved in 10% DMSO. The assay mixtures contained 50 µL of 50 mM phosphate buffer (pH 7.4) containing 0.02% sodium azide and BSA (10 mg/mL), 50 µL of 7 mM MGO, and 50 µL of sample. After incubation at 60 °C for 2 days, fluorescence was measured on excitation and emission wavelengths of 340 and 420 nm, respectively, in a 96-black well plate. AMG was used as a positive control. The inhibitory activity on AGE formation by BSA-MGO was calculated using the same equation applied in the BSA-glucose assay.

[4] = parameters: method as in PMID 29885110; details: cited from earlier work
[5] = compounds, 60 °C, 2 days, fluorescence ex 350/em 450 nm, mean ± SD (n = 3), read-out: IC50 BSA-Glucose
[6] = compounds, 60 °C, 2 days, fluorescence ex 340/em 420 nm, mean ± SD (n = 3)

α-glucosidase from Saccharomyces cerevisiae, sequence (P53341 whole entry): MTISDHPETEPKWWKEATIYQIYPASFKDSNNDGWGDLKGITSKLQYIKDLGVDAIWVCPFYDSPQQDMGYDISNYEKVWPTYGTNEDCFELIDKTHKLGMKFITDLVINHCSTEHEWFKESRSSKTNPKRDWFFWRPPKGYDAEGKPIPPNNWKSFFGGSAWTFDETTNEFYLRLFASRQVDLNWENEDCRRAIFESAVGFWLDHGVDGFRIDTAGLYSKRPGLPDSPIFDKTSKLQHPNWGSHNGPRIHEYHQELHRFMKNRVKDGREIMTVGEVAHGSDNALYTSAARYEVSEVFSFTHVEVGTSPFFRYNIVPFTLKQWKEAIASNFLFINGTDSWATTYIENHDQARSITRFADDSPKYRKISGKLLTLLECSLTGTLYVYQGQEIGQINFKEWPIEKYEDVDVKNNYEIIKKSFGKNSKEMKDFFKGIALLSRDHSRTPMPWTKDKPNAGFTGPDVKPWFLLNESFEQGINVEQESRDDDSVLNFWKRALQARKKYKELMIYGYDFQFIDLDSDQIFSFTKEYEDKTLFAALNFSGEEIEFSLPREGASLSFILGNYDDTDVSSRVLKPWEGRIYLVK

Row | Structure (SMILES) | IC50 [2, 5] [µM] | IC50 [3, 6] [µM] | α-glucosidase inhibitory activity (in words) [1] | inhibition of AGE formation in BSA-MGO system (in words) [3] | other results
1 | C[C@@H]1O[C@@H](O[C@@H]2[C@@H](O)[C@H](O)[C@@H](CO)O[C@H]2c2c(O)cc(O)c3c(=O)cc(-c4ccc(O)cc4)oc23)[C@H](O)[C@H](O)[C@H]1O [Compound 10, vitexin-2″-O-rhamnoside] | – | – | – | – | IC50 [1]: 12.8 ± 1.18 µM; IC50 [2]: 29.6 ± 1.02 µM; IC50 [3]: 12.5 ± 0.81 µM
2 | O=c1cc(-c2ccc(O)cc2)oc2c([C@@H]3O[C@H](CO)[C@@H](O)[C@H](O)[C@H]3O)c(O)cc(O)c12 [Compound 6, vitexin] | 19.5 ± 1.47 | 14.9 ± 3.66 | – | – | –
3 | O=C(O)c1ccc(O)c(O)c1 [Compound 2, protocatechuic acid] | 79.8 ± 1.91 | 53.2 ± 23.2 | – | – | –
4 | N=C(N)NN [Aminoguanidine, aminoguanidine] | – | – | – | – | toxicity during clinical evaluation [4]: toxic
5 | O=c1cc(-c2ccc(O)cc2)oc2cc(O)c([C@@H]3O[C@H](CO)[C@@H](O)[C@H](O)[C@H]3O)c(O)c12 [Compound 5, isovitexin] | 20.2 ± 0.1 | 7.49 ± 0.24 | – | – | –
6 | Cl.N=C(N)NN [AMG, aminoguanidine hydrochloride, reference compound] | – | – | – | – | IC50 BSA-Glucose ([2]; extract and fractions, 60 °C, 2 days, fluorescence ex 350/em 450 nm, mean ± SD (n = 3)): 217.93 ± 1.54 µg/mL; IC50 BSA-MGO ([3]; extract and fractions, 60 °C, 2 days, fluorescence ex 340/em 420 nm, mean ± SD (n = 3)): 167.32 ± 8.40 µg/mL
7 | O=Cc1ccc(CO)o1 [Compound 4, 5-hydroxymethylfurfural] | – | 381 ± 14.7 | no, or slight, inhibitory activity | no or slight inhibitory activity | inhibition of AGE formation in BSA-glucose system (in words) [2]: no activity
8 | O=c1cc(-c2ccc(O)c(O)c2)oc2c([C@@H]3O[C@H](CO)[C@@H](O)[C@H](O)[C@H]3O)c(O)cc(O)c12 [Compound 7, orientin] | 9.61 ± 0.27 | 13.3 ± 0.65 | – | – | –
9 | COc1ccc(C=O)cc1O [Compound 3, isovanillin] | – | > 500 | no, or slight, inhibitory activity | no or slight inhibitory activity | inhibition of AGE formation in BSA-glucose system (in words) [2]: no activity
10 | O=C(O)/C=C/c1ccc(O)c(O)c1 [Compound 9, caffeic acid] | 54.51 ± 0.3 | 43 ± 9.41 | no, or slight, inhibitory activity | – | –
11 | O=c1cc(-c2ccc(O)cc2)oc2c([C@@H]3O[C@H](CO)[C@@H](O[C@@H]4O[C@H](CO)[C@@H](O)[C@H](O)[C@H]4O)[C@H](O)[C@H]3O)c(O)cc(O)c12 [Compound 11, vitexin-4″-O-glucoside] | 14.5 ± 0.39 | 11.6 ± 1.1 | – | – | IC50 [1]: 65.4 ± 4.22 µM
12 | O=C(O)c1cc(O)c(O)c(O)c1 [Compound 8, gallic acid] | 192 ± 2.15 | > 500 | – | no or slight inhibitory activity | –
13 | O=C(O)c1ccc(O)cc1 [Compound 1, p-hydroxybenzoic acid] | – | – | no, or slight, inhibitory activity | no or slight inhibitory activity | inhibition of AGE formation in BSA-glucose system (in words) [2]: no activity
